Assay results published in PMC7381729, “A new class of PentixaFor- and PentixaTher-based theranostic agents with enhanced CXCR4-targeting efficiency” (Theranostics, 2020).
Like-named read-outs stand apart in the source and are kept apart here. Where a SMILES comes first, the peptide text is derived from it. Side-chain parts run from the residue outwards. [ ]: non-standard residue; d: D form. The star is where a group is joined. DOTA = O=C(O)CN1CCN(CC(=O)O)CCN(CC(=O)*)CCN(CC(=O)O)CC1; 2Nal = N[C@@H](Cc1ccc2ccccc2c1)C(=O)O; dNMeOrn = CN[C@H](CCCN)C(=O)O; 4Amb = NCc1ccc(C(=O)O)cc1

Tests used:
[1] = test system: Daudi xenograft bearing CB17 SCID mice; experiment: Small animal PET imaging in Daudi xenograft bearing mice; assay type: in vivo; conditions: mouse, in vivo
Protocol: (§1) Small aminal PET imaging studies were performed using a Siemens Inveon PET scanner. Animals were anesthetized with isoflurane and injected via the tail vein with 10 to 15 MBq (0.1 nmol) of the respective tracer. Dynamic imaging (n=1 per compound) was performed after on-bed injection for 1.5 h, and static images (n=1 per compound) were acquired at 1 h p.i. with an acquisition time of 15 min. Data analysis was performed using the Inveon Research Workplace software. Images were reconstructed using a 3D ordered-subsets expectation maximum (OSEM3D) algorithm without scanner and attenuation correction. Time-activity curves (Figure 4) were obtained by generating isocontour regions of interest (ROI) for the tumor and the heart content (as a surrogate for blood activity), as well as by defining two spherical ROIs (each 23.4 mm^3) in the thigh area (muscle) and areas of homogenous tracer uptake in the liver, followed by plotting of average activity ± SD per volume in these ROIs over time.  Figure 4 Results from small animal PET imaging using [^68Ga]PentixaFor (top row), [^68Ga]DOTA-r-a-ABA-CPCR4 (middle row) and [^68Ga]DOTA-r-a-ABA-iodoCPCR4 (bottom row) in Daudi xenograft bearing CB17 SCID mice. Images on the left (MIP) were obtained by static imaging (1h p.i., n=1), the time activity curves (TAC) on the right were acquired by dynamic PET imaging (0-90 min p.i., n=1).

[2] = as above; assay type: in vivo; conditions: CB17 SCID, mouse, iv, total radioactivity, 90 min p.i., dynamic PET, ROI analysis, n=1 per compound
Protocol: as §1

murine CXCR4 (mCXCR4) = target: T1, murine CXCR4 (mCXCR4) (Mus musculus, UniProt P70658); experiment: Competition binding to mCXCR4, Eµ-myc 1080 mouse lymphoma cells, [125I]CPCR4.3 as radioligand; conditions: Eµ-myc 1080 mouse lymphoma cells 200.000 cells/sample, means ± SD of min. three separate experiments
T1 construct: mCXCR4-expressing Eµ-Myc1080 mouse B-cell lymphoma cells; endogenous in cells; host or cells: Eµ-Myc1080 mouse B-cell lymphoma cells (whole cells)
Protocol: Experiments were performed in triplicate with n=3 per concentration in each experiment. IC50 values were calculated using GraphPad Prism 6.01 (Graph Pad Software, San Diego, USA).

T1 sequence (P70658 whole entry): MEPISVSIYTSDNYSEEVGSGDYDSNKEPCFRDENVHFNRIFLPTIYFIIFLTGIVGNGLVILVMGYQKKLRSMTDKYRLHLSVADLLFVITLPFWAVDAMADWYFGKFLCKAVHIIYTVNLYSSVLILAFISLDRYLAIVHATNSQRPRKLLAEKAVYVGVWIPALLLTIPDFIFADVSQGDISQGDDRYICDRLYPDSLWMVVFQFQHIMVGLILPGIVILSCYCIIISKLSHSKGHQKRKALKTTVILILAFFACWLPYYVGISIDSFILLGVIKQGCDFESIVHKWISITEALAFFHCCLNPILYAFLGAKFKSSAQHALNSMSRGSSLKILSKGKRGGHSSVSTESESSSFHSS

Row | Compound | Time at which tumor uptake plateaus (TAC) [1] | tissue uptake per volume at 1.5 h ([2]; kidney, read-out: Kidney uptake in PET) | tissue uptake per volume at 1.5 h ([2]; liver, average ± SD per volume in ROI, read-out: Liver uptake in PET) | tissue uptake per volume at 1.5 h ([2]; tumor (Daudi xenograft), Daudi xenograft, read-out: Tumor accumulation in PET) | IC50 (murine CXCR4 (mCXCR4))
1 | CN1C(=O)[C@@H](Cc2ccc(O)cc2)NC(=O)CNC(=O)[C@H](Cc2ccc3ccccc3c2)NC(=O)[C@H](CCCNC(=N)N)NC(=O)[C@H]1CCCNC(=O)c1ccc(CNC(=O)CN2CCN(CC(=O)O)CCN(CC(=O)O)CCN(CC(=O)O)CC2)cc1 [[^68Ga]PentixaFor, cyclo(D-Tyr^1-D-[NMe]Orn^2(AMBS-[^68Ga]DOTA)-Arg^3-Nal^4-Gly^5), metal not drawn, reference compound] (cyclo([dY][dNMeOrn]([4Amb-DOTA])R[2Nal]G)) | ~20 min p.i. | 2.7 ± 0.1 %ID/mL | 1.8 ± 0.1 %ID/mL | 14.3 ± 1.2 %ID/mL | 
2 | [^natLu]DOTA-k-G-ABA-iodoCPCR4 (head to tail) [natLu-complex of entry 10] |  |  |  |  | 61 ± 17 nM
3 | [^natLu]DOTA-r-G-ABA-iodoCPCR4 (head to tail) [natLu-complex of entry 12] |  |  |  |  | 37 ± 3 nM
